Data on seven compounds can be found in patent US8404460B2, “Method for detecting and/or identifying Clostridium difficile” (Biomerieux, priority 2008, dated 2013).

Assay [1] deals with C. difficile strains 042, 308, 169, 187. The experiment in a line: Example 4: five CHE-beta-glucoside media with varying esculin and glucose, colony diameter and coloration strength. The assay is classed as cell-based, Clostridium difficile. To be noted: Example 4, according to medium 2. The method, then: Five media, each containing 48.10 g/l of Columbia base, 2.5 g/l of sodium taurocholate, 200 mg/l of ammoniacal iron citrate, 100 mg/l of CHE-beta-glucoside, and also an inhibitor system normally used in the media for Clostridium difficile, based on D-cycloserine, and varying concentrations of esculin and glucose (see following table):
(§1) The inoculation is carried out from precultures prepared for 48 h at 37° C. under anaerobic conditions.
(§2) A suspension in physiological saline at 0.5 McF is prepared and then the strains are inoculated using a 10 μl calibrated loop.
The readings are carried out after incubation for 24 hours at 37° C.
For Growth: • The values indicated correspond to the diameter of the colonies.
For Coloration Strength: • 1 corresponds to the presence of a clear coloration of weak strength, • 1.5 corresponds to the presence of a coloration that is intermediate between colorations 1 and 2, • 2 corresponds to the presence of a clear coloration of medium strength, • 2.5 corresponds to the presence of a coloration that is intermediate between colorations 2 and 3, • 3 corresponds to the presence of a strong coloration.

Assay [2] concerns Clostridium difficile. The experiment in a line: Example 3: Colombia base media with a chromogenic beta-glucosidase substrate and 300 mg/l ammoniacal iron citrate. The format is cell-based. More on the design: key to diffusion of the coloration: *: diffusion of trie coloration. To be noted: Clostridium difficile strains, 48 h; for Co = coloration / Gr = growth: Colombia base, 300 mg/l ammoniacal iron citrate.

Assay [3] concerns Other Clostridium. The assay is classed as cell-based, Clostridium spp.
Assay [4] has as its system Clostridium difficile. The experiment in a line: Example 2: egg yolk base media each containing a chromogenic beta-glucosidase substrate, growth and coloration of strains. The assay is classed as cell-based. Particulars: for Co = coloration / Gr = growth: Clostridium difficile strains, 48 h, egg yolk base; for sensitivity with respect to Clostridium difficile: Example 2, 48 h.

Assay [5] has as its system Clostridium difficile. The assay can be described thus: Example 5: two prototype media for C. difficile, % of strains producing a coloration. The assay is classed as cell-based. The method, then:
(§3) 107 strains were tested on two prototype media for C. difficile, the compositions of which are the following (per liter):
as §1, §2
(§4) The readings are carried out after incubation for 24 and 48 hours at 37° C.

Assay [6] concerns strains other than Clostridium difficile. The assay can be described thus: Example 5: selectivity of the medium, growth of strains other than Clostridium difficile. The format is cell-based. The method, then: as §3, §1, §2, §4
Setting [7] is: substrate 300 mg/l +50 mg of ammoniacal iron citrate.
Where [8] appears, read: substrate 300 mg/l +500 mg/l of ammoniacal iron citrate.

For the compound `O=c1ccc2cc(O[C@@H]3O[C@H](CO)[C@@H](O)[C@H](O)[C@H]3O)c(O)cc2o1` [esculin, esculetin-β-glucoside], the “effect on the strength of the coloration” value in assay [1] is recorded as “positive effect”.
For the compound “dihydroxyflavone-β-glucoside [DHF-β-glucoside]”, the “Co = coloration” value in assay [2] (substrate 300 mg/l) was 10/10; in assay [3], 3/12; in assay [4] (setting [7]), 20/28. Further, the figures for the “Gr = growth” value in assay [2] (substrate 300 mg/l), in assay [3] and in assay [4] (setting [7]) were 10/10, 12/14 and 28/28, respectively.
On to `O=c1oc2cc(O)c(O[C@@H]3O[C@H](CO)[C@@H](O)[C@H](O)[C@H]3O)cc2c2c1CCCC2` [CHE-β-glucoside, 3,4-cyclohexenoesculetin-β-glucoside], for which the results for the “Co = coloration” value in assay [3] and in assay [4] (setting [8]) were 6/17 and 20/21, respectively. Further, the “Gr = growth” value in assay [3] is reported as 17/17; in assay [4] (setting [8]), 21/28. Also, the “sensitivity with respect to Clostridium difficile” value (shortened to “sensitivity”) in assay [5] (Example 5, from 24 h onward) was “good sensitivity”; in assay [4], “good sensitivity”. Also, the “strains of Clostridium difficile revealed” value in assay [5] (from 24 h onward, with a minimum of false positives) is listed as about 90%. Also, the “specificity with respect to Clostridium difficile” value in assay [6] is given as “good specificity”.
`O=C1c2ccccc2C(=O)c2c1ccc(O[C@@H]1O[C@H](CO)[C@@H](O)[C@H](O)[C@H]1O)c2O` [Alizarin-β-glucoside, 1,2-dihydroxyanthraquinone-β-glucoside]: the “Co = coloration” value is 8/10 in assay [2] (substrate 50 mg/l), 2/16 in assay [3] and 18/22 in assay [4] (substrate 50 mg/l). Also, the “Gr = growth” value in assay [2] (substrate 50 mg/l) is recorded as 10/10; in assay [3], 16/17; in assay [4] (substrate 50 mg/l), 22/28. For the same compound, the “sensitivity” value in assay [4] is “good sensitivity”.
Consider “5-bromo-3-indoxyl-β-glucoside [Blue-β-glucoside]”, for which, in assay [2] (Blue substrate 300 mg/l), the “diffusion of the coloration” value is recorded as “*”, the “Co = coloration” value is 10/10 and the “Gr = growth” value was 10/10.
For “5-bromo-6-chloro-3-indoxyl-β-glucoside [Magenta-β-glucoside]”, the “Co = coloration” value in assay [3] was 6/17; in assay [4] (substrate 80 mg/l), 16/18. The figures for the “Gr = growth” value in assay [3] and in assay [4] (substrate 80 mg/l) were 17/17 and 18/28, respectively. Besides, the “sensitivity” value in assay [4] is recorded as “good sensitivity”.
In the case of `OC[C@H]1O[C@@H](Oc2cccc3cccnc23)[C@H](O)[C@@H](O)[C@@H]1O` [8-Hydroxyquinoline-β-glucoside, 8-hydroxyquinoline-β-glucoside], in assay [2] (substrate 150 mg/l), the “Co = coloration” value was 5/10 and the “Gr = growth” value is 10/10.
